We go through three compounds from ChEMBL document CHEMBL4118148, “Design, synthesis and cardiovascular evaluation of some aminoisopropanoloxy derivatives of xanthone” (Bioorg Med Chem, 2018).

Data set [1] deals with Rattus norvegicus. Kind of data set: Hypotensive activity in normotensive Wistar rat assessed as reduction in diastolic blood pressure at 1 mg/kg, iv measured over 40th min relative to control. The class given is functional. Further details: scale not given: the % may be the effect or the level left.
In data set [2] the test system is Rattus norvegicus. Kind of data set: Hypotensive activity in normotensive Wistar rat assessed as systolic blood pressure at 2.5 mg/kg, iv measured after 20 mins (reference value: 148.5 +/- 2.6 mmHg). The class given is functional.
The subject of data set [3] is Rattus norvegicus. In words: Cardiotoxicity in Wistar rat assessed as effect on PQ interval time at 1 mg/kg, iv measured after 5 mins (reference value: 56.8 +/- 1.8 ms). The class given is toxicity, organism-based. The settings on record: in vivo.
Data set [4] relates to Rattus norvegicus. Kind of data set: Cardiotoxicity in Wistar rat assessed as effect on heart rate at 1 mg/kg, iv measured after 5 mins (reference value: 320.6 +/- 8.1 bpm). In kind it is toxicity, organism-based. The settings on record: in vivo.

Structures are written as SMILES.

On to `Cl.O=c1c2ccccc2oc2cc(OCC(O)CN3CCN(c4ccccn4)CC3)ccc12` (racemic), for which the Activity with Rattus norvegicus [1] is recorded as 8 - 10%.

In the case of `COc1ccc(CCNCC(O)COc2cccc3c(=O)c4ccccc4oc23)cc1OC.Cl` (racemic), the Activity with Rattus norvegicus [2] worked out at 132 mmHg.

For the compound `CC(C)(C)NCC(O)COc1cccc2c(=O)c3ccccc3oc12.Cl` (racemic), the Time with Rattus norvegicus [3] was 58 ms. Besides, the Activity in the data set on Rattus norvegicus [4] was determined as 295.6 bpm.
